ChEMBL document CHEMBL1131733, “Dual-acting agents with alpha1-adrenoceptor antagonistic and steroid 5alpha-reductase inhibitory activities. Synthesis and evaluation of arylpiperazine derivatives” (Bioorg Med Chem Lett, 1999)

Experiments:
[1] = Antagonistic Alpha-1 adrenergic receptor activity against phenylephrine-induced contraction of rabbit prostate; assay type: functional, Oryctolagus cuniculus
[2] = biological target: Steroid 5-alpha-reductase (Rattus norvegicus) (UniProt P24008+P31214); experiment: Inhibitory effect on prostatic Steroid 5-alpha-reductase, 2 hours after oral administration
[3] = tested on: Oryctolagus cuniculus; experiment: Dose required to inhibit increase in urethral pressure induced by phenylephrine in anesthetized rabbits by iv administration; assay type: functional
[4] = biological target: T1, Steroid 5-alpha-reductase (Rattus norvegicus, UniProt P24008+P31214); experiment: Inhibition of Steroid 5-alpha-reductase from Dawley rat prostate; assay type: tissue-based, Prostate gland
T1 sequence (P24008 whole entry): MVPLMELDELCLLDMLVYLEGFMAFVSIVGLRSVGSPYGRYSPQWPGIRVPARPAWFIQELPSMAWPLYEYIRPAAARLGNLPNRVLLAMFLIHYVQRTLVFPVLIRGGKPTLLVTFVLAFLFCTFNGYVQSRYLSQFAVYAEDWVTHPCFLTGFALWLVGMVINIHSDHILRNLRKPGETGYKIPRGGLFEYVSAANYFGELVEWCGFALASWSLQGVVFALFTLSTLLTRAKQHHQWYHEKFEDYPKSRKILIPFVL
T1 sequence (P31214 whole entry): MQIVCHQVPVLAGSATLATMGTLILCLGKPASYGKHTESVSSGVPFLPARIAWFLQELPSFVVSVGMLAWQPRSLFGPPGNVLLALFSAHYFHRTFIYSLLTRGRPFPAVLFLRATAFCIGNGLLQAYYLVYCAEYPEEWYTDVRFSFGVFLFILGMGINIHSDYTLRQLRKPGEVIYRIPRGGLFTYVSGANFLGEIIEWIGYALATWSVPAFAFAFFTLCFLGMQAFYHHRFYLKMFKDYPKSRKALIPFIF

CCOc1ccccc1N1CCN(CCCOc2cc(C(=O)c3cn(CCCC(=O)O)c4ccccc34)ccc2OCc2ccc(C)cc2)CC1
pA2 [1]: 7.5 | ED50 [2]: 7.9 mg/kg | Dose [3]: 0.3 mg/kg | IC50 [4]: 1.5 nM

CCCOc1ccccc1N1CCN(CCCOc2cc(C(=O)c3cn(CCCC(=O)O)c4ccccc34)ccc2OCc2ccc(C)cc2)CC1
pA2 [1]: 6.8 | IC50 [4]: 3 nM

COc1ccccc1N1CCN(CCCOc2cc(C(=O)Nc3ccccc3OCCCC(=O)O)ccc2OCc2ccccc2)CC1
pA2 [1]: 8 | IC50 [4]: 490 nM

COc1ccccc1N1CCN(CCCOc2ccc(C(=O)c3cn(CCCC(=O)O)c4ccccc34)cc2OCc2ccccc2)CC1
pA2 [1]: 7 | IC50 [4]: 360 nM

COc1ccccc1N1CCN(CCCOc2cc(C(=O)c3cn(CCCC(=O)O)c4ccccc34)ccc2OCc2ccccc2)CC1
pA2 [1]: 7.8 | IC50 [4]: 11 nM

COc1ccccc1N1CCN(CCCNc2cc(=O)n(C)c(=O)n2C)CC1
pA2 [1]: 7.1

COc1ccccc1N1CCN(CCCOc2cc(C(=O)c3cn(CCCC(=O)O)c4ccccc34)ccc2OCc2ccc(C)cc2)CC1
pA2 [1]: 7.7 | IC50 [4]: 3.5 nM

Cc1ccc(COc2ccc(C(=O)c3cn(CCCC(=O)O)c4ccccc34)cc2OCCCN2CCN(c3ccccc3OC(C)C)CC2)cc1
pA2 [1]: 6.8 | IC50 [4]: 2.9 nM

CC(C)Cc1ccc(C(Nc2cccc(C(=O)c3cn(CCCC(=O)O)c4ccccc34)c2)c2ccc(CC(C)C)cc2)cc1
IC50 [4]: 4.2 nM

COc1ccccc1N1CCN(CCCCOc2cc(C(=O)c3cn(CCCC(=O)O)c4ccccc34)ccc2OCc2ccc(C)cc2)CC1
pA2 [1]: 6.7 | IC50 [4]: 1.5 nM

COc1ccccc1N1CCN(CCC(Oc2ccc(C(=O)Nc3ccccc3OCCCC(=O)O)cc2)c2ccccc2)CC1 (centres undefined)
pA2 [1]: 7.6 | IC50 [4]: 920 nM

COc1ccccc1N1CCN(CCOc2cc(C(=O)c3cn(CCCC(=O)O)c4ccccc34)ccc2OCc2ccc(C)cc2)CC1
pA2 [1]: 6.8 | IC50 [4]: 4.8 nM

COc1ccccc1N1CCN(CCC(Oc2ccc(C(=O)Nc3ccccc3OCCCC(=O)O)cc2)c2ccc(C)cc2)CC1 (centres undefined)
pA2 [1]: 7.8

CCc1ccc(COc2ccc(C(=O)c3cn(CCCC(=O)O)c4ccccc34)cc2OCCCN2CCN(c3ccccc3OC)CC2)cc1
pA2 [1]: 6.6 | IC50 [4]: 4 nM

COc1ccccc1N1CCN(CCCOc2ccc(C(=O)Nc3ccccc3OCCCC(=O)O)cc2OCc2ccccc2)CC1
pA2 [1]: 7.2 | IC50 [4]: 3500 nM
